Columns and labels:
[1] = system: hyperactivity in rats induced by PCP; conditions: cited from earlier work
[2] = system: catalepsy in rats; conditions: cited from earlier work
[3] = system: PCP induced hyperactivity in male mice (NMRI); assay: Phencyclidine (PCP) induced hyperactivity; format: in vivo; conditions: at 5 mg/kg, per os 60 min before PCP 2.3 mg/kg s.c.
Experimental: Male mice (NMRI, Charles River) weighing 20-25 g are used. Eight mice are used in each group receiving the test compound (5 mg/kg) plus PCP (2.3 mg/kg) including the parallel control groups receiving the vehicle of the test compound plus PCP or vehicle injections only. The injection volumen is 10 ml/kg. The experiment is made in normal light conditions in an undisturbed room. The test substance is injected per oss 60 min before injection of PCP, which is administered subcutaneous.
Immediately after injection of PCP the mice are placed individually in special designed test cage (20 cm×32 cm). The activity is measured by 5×8 infrared light sources and photocells spaced by 4 cm. The light beams cross the cage 1.8 cm above the bottom of the cage. Recording of a motility count requires interruption of adjacent light beams, thus avoiding counts induced by stationary movements of the mice.
Motility is recorded in 5 min intervals for a period of 1 hour. The drug effect is calculated on the total counts during the 1 hour behavioral test period in the following manner. […] The 100 percent effect of PCP is accordingly calculated to be total motility counts minus baseline. The response in groups receiving test compound is thus determined by the total motility counts minus baseline, expressed in percent of the similar result recorded in the parallel PCP control group. […]

Row | Structure (SMILES) | Effect on hyperactivity induced by PCP [1] | Effect on the cataleptic effect of the D2 receptor antagonist haloperidol ([2]; combined with haloperidol) | Catalepsy on its own ([2]; papaverine alone) | Inhibition of PCP induced hyperactivity [3] [%]
1 | COc1ccc(Cc2nccc3cc(OC)c(OC)cc23)cc1OC [Papaverine] | reduced hyperactivity | potentiated the cataleptic effect | did not cause catalepsy on its own | –
2 | Cc1ncc(C)n2nc(CCc3cn4c(n3)-c3ccccc3C4)nc12 [2-[-2-(5,8-Dimethyl-[1,2,4]triazolo[1,5-a]pyrazin-2-yl)-ethyl]-5H-imidazo[2,1-a]isoindole] | – | – | – | 100

Reference: patent publication US9062060B2, “Substituted imidazo[2,1-A]isoindoles as PDE10 inhibitors” (H. Lundbeck A/S, priority 2010, dated 2015)
